Where two headings read alike, the source gives them in different places.
Assay: Pharmacokinetics of caspofungin during continuous venovenous hemodiafiltration (CVVHD)
Assay type: in vivo, human
Settings: for Vd / t½ / AUC0-24 Arterial / AUC0-24 Difference venous to arterial (%) / AUC0-24 Venous / Cl / Cmax / Ctrough: steady state, CVVHD; for t½: elimination
Procedure: The aim of the present study was to describe the pharmacokinetics of caspofungin in 12 critically ill adult patients with suspected or proven invasive candidiasis who were receiving continuous venovenous hemodiafiltration (CVVHD).
CVVHD was performed using a polysulfone hemofilter (Fresenius, Germany). Caspofungin was administered at usual doses. Pre-filter and post-filter blood, ultradiafiltrate, and urine samples were collected at steady state on day 3 or later, before the dose infusion started, and 0.5, 1, 1.5, 2, 4, 6, 8, and 24 h after the infusion ended.

With CC[C@H](C)C[C@H](C)CCCCCCCCC(=O)N[C@H]1C[C@@H](O)[C@@H](NCCN)NC(=O)[C@@H]2[C@@H](O)CCN2C(=O)[C@H]([C@H](O)CCN)NC(=O)[C@H]([C@H](O)[C@@H](O)c2ccc(O)cc2)NC(=O)[C@@H]2C[C@@H](O)CN2C(=O)[C@H]([C@@H](C)O)NC1=O [caspofungin] the Vd (human, in vivo, iv, Mean ± SD of 12 patients, SD, read-out: Vd) was 16.4 ± 5.4 L, the “Mean concentration in the post-filter line compared with the pre-filter line” value (n = 12 patients, rules out adsorption to the filter) was “slightly higher” and the t½ (patient 1) was 27.4 h. The “AUC0-24 Arterial” value (patient 1) was 140.0 mg·h/L, the “AUC0-24 Difference venous to arterial (%)” value (patient 1) was 29% and the “AUC0-24 Venous” value (patient 1) was 180.0 mg·h/L. It also gave a Cl (patient 1) of 0.356 L/h, a Cmax (patient 1) of 12.5 mg/L and a Ctrough (patient 1) of 3.47 mg/L. For the same compound, the Vd (patient 1) was 14.1 L, the t½ (patient 2) was 21.0 h and the “AUC0-24 Arterial” value (patient 2) was 88.3 mg·h/L. For the same compound, the “AUC0-24 Difference venous to arterial (%)” value (patient 2) was 20%, the “AUC0-24 Venous” value (patient 2) was 106.0 mg·h/L and the Cl (patient 2) was 0.567 L/h. It also gave a Cmax (patient 2) of 7.8 mg/L, a Ctrough (patient 2) of 2.1 mg/L and a Vd (patient 2) of 17.1 L. The t½ (patient 3) was 18.8 h, the “AUC0-24 Arterial” value (patient 3) was 124.0 mg·h/L and the “AUC0-24 Difference venous to arterial (%)” value (patient 3) was 23%. The “AUC0-24 Venous” value (patient 3) was 152.0 mg·h/L, the Cl (patient 3) was 0.402 L/h and the Cmax (patient 3) was 8.8 mg/L. For the same compound, the Ctrough (patient 3) was 3.1 mg/L, the Vd (patient 3) was 10.9 L and the t½ (patient 4) was 24.3 h. For the same compound, the “AUC0-24 Arterial” value (patient 4) was 65.4 mg·h/L, the “AUC0-24 Difference venous to arterial (%)” value (patient 4) was 18% and the “AUC0-24 Venous” value (patient 4) was 77.4 mg·h/L. It also gave a Cl (patient 4) of 0.765 L/h, a Cmax (patient 4) of 6.9 mg/L and a Ctrough (patient 4) of 1.3 mg/L. The Vd (patient 4) was 26.8 L, the t½ (patient 5) was 16.5 h and the “AUC0-24 Arterial” value (patient 5) was 68.0 mg·h/L. The “AUC0-24 Difference venous to arterial (%)” value (patient 5) was 32%, the “AUC0-24 Venous” value (patient 5) was 90.0 mg·h/L and the Cl (patient 5) was 0.735 L/h. The Cmax (patient 5) was 4.8 mg/L, the Ctrough (patient 5) was 1.5 mg/L and the Vd (patient 5) was 17.5 L. For the same compound, the t½ (patient 6) was 13.8 h, the “AUC0-24 Arterial” value (patient 6) was 102.0 mg·h/L and the “AUC0-24 Difference venous to arterial (%)” value (patient 6) was 5%. The “AUC0-24 Venous” value (patient 6) was 107.0 mg·h/L, the Cl (patient 6) was 0.683 L/h and the Cmax (patient 6) was 10.7 mg/L. It also gave a Ctrough (patient 6) of 2.5 mg/L, a Vd (patient 6) of 13.6 L and a t½ (patient 7) of 13.6 h. The “AUC0-24 Arterial” value (patient 7) was 65.6 mg·h/L, the “AUC0-24 Difference venous to arterial (%)” value (patient 7) was 20% and the “AUC0-24 Venous” value (patient 7) was 78.8 mg·h/L. For the same compound, the Cl (patient 7) was 0.762 L/h, the Cmax (patient 7) was 8.3 mg/L and the Ctrough (patient 7) was 1.6 mg/L. The Vd (patient 7) was 15.0 L, the t½ (patient 8) was 19.3 h and the “AUC0-24 Arterial” value (patient 8) was 100.0 mg·h/L. For the same compound, the “AUC0-24 Difference venous to arterial (%)” value (patient 8) was 13%, the “AUC0-24 Venous” value (patient 8) was 113.0 mg·h/L and the Cl (patient 8) was 0.499 L/h. For the same compound, the Cmax (patient 8) was 9.5 mg/L, the Ctrough (patient 8) was 2.7 mg/L and the Vd (patient 8) was 13.9 L. For the same compound, the t½ (patient 9) was 14.3 h, the “AUC0-24 Arterial” value (patient 9) was 102.0 mg·h/L and the “AUC0-24 Difference venous to arterial (%)” value (patient 9) was 25%. The “AUC0-24 Venous” value (patient 9) was 127.0 mg·h/L, the Cl (patient 9) was 0.685 L/h and the Cmax (patient 9) was 9.2 mg/L. The Ctrough (patient 9) was 2.3 mg/L, the Vd (patient 9) was 14.1 L and the t½ (patient 10) was 15.0 h. For the same compound, the “AUC0-24 Arterial” value (patient 10) was 121.0 mg·h/L, the “AUC0-24 Difference venous to arterial (%)” value (patient 10) was 17% and the “AUC0-24 Venous” value (patient 10) was 142.0 mg·h/L. For the same compound, the Cl (patient 10) was 0.578 L/h, the Cmax (patient 10) was 12.6 mg/L and the Ctrough (patient 10) was 2.9 mg/L. The Vd (patient 10) was 12.5 L, the t½ (patient 11) was 26.2 h and the “AUC0-24 Arterial” value (patient 11) was 190.0 mg·h/L. For the same compound, the “AUC0-24 Difference venous to arterial (%)” value (patient 11) was 18%, the “AUC0-24 Venous” value (patient 11) was 224.0 mg·h/L and the Cl (patient 11) was 0.368 L/h. It also gave a Cmax (patient 11) of 11.5 mg/L, a Ctrough (patient 11) of 4.0 mg/L and a Vd (patient 11) of 13.9 L. The t½ (patient 12) was 16.5 h, the “AUC0-24 Arterial” value (patient 12) was 60.1 mg·h/L and the “AUC0-24 Difference venous to arterial (%)” value (patient 12) was 24%. For the same compound, the “AUC0-24 Venous” value (patient 12) was 74.5 mg·h/L, the Cl (patient 12) was 1.165 L/h and the Cmax (patient 12) was 8.5 mg/L. The Ctrough (patient 12) was 1.9 mg/L, the Vd (patient 12) was 27.7 L and the “Caspofungin in ultradiafiltrate samples” value (ultradiafiltrate, CVVHD with polysulfone hemofilter, HPLC) was “negligible”. For the same compound, the “Caspofungin in urine samples” value (urine, patients on CVVHD, HPLC) was “negligible”.
